Test results published in patent publication US20240041859A1, “METHODS OF TREATING AND PREVENTING KIDNEY DISEASE” (Washington University, priority 2020, published 2024).

Assays:
pkd1-null (WT9-12) cells = assay: centrosome clustering inhibitors on ADPKD cell line; assay type: cell-based; details: for mitotic progression / spindle assembly checkpoint (SAC) and cell death of cells with CA: cells with CA; for centrosome clustering in cells with CA: pkd1-null (WT9-12) cells
Source text: (§1) Since this approach worked in ADPKD cells, mouse models were subsequently used to test the efficacy of the inhibitors in vivo.

wild-type (HK2) cells = assay: centrosome clustering inhibitors on wild-type cells; assay type: cell-based
Source text: as §1

PKD1^RC/RC mice [1] = assay: slow-onset ADPKD mouse model, five-month treatment from six months of age; assay type: in vivo
Source text: To test the inhibitors, a slow-onset mouse model of ADPKD was needed that would allow for an extended period of time to treat these mice with the centrosome clustering inhibitors. The widely used slow-onset ADPKD model called the PKD1^RC/RC mouse (Hopp et al, JCI, 2012) was chosen for the small molecule inhibitor tests. These mice develop cysts slowly, such that kidney size increases around 6 months of age, and kidney function declines—as indicated by elevated blood-urea nitrogen (BUN) levels—around 9 months of age. The mice also show extensive cystogenesis as they age. […] Thus, this model was ideal for testing the centrosome clustering inhibitors. Using the slow-onset ADPKD model, the optimal effective time-course for inhibition of centrosome clustering using CCB02 and PJ-34 can be determined. Example 1 describes treatment at timepoints (e.g., beginning at six months of age, beginning at nine months, and up to eleven months of age) and for periods of time (e.g., every other day for sixty days or two months, every two days for five months). PKD1^RC/RC mice were treated with the inhibitors beginning at six months of age—at a stage when their kidneys have yet to dramatically increase in size and show functional decline (see e.g., FIG. 8). Centrosome clustering inhibitor CCB02 was administered by gavage every two days for a total of five months. Also included in the analysis was the only FDA-approved drug for ADPKD, tolvaptan. […] Blood and urine were collected at one-month intervals to monitor kidney function (see e.g., FIG. 8).

PKD1^RC/RC mice [2] = assay: slow-onset ADPKD mouse model, sixty-day treatment followed by three-month washout; assay type: in vivo
Source text: To test the inhibitors, a slow-onset mouse model of ADPKD was needed that would allow for an extended period of time to treat these mice with the centrosome clustering inhibitors. The widely used slow-onset ADPKD model called the PKD1^RC/RC mouse (Hopp et al, JCI, 2012) was chosen for the small molecule inhibitor tests. These mice develop cysts slowly, such that kidney size increases around 6 months of age, and kidney function declines—as indicated by elevated blood-urea nitrogen (BUN) levels—around 9 months of age. The mice also show extensive cystogenesis as they age. […] Thus, this model was ideal for testing the centrosome clustering inhibitors. Using the slow-onset ADPKD model, the optimal effective time-course for inhibition of centrosome clustering using CCB02 and PJ-34 can be determined. Example 1 describes treatment at timepoints (e.g., beginning at six months of age, beginning at nine months, and up to eleven months of age) and for periods of time (e.g., every other day for sixty days or two months, every two days for five months). […] PKD1^RC/RC mice were administered centrosome clustering inhibitor CCB02 beginning at nine months and up to eleven months of age (see e.g., FIG. 12A). CCB02 was administered by gavage every other day for sixty days (see e.g., FIG. 8). The treatment was arrested for three months, and animals were monitored for three additional months to determine if cysts returned once the compounds are no longer administered.

CPAP-tubulin interaction = details: binding to tubulin, competing for the CPAP binding site of P-tubulin; cited from earlier work
[3] = annually; cited from earlier work
[4] = five months treatment vs two-month scheme

SMILES | mitotic progression (pkd1-null (WT9-12) cells) | spindle assembly checkpoint (SAC) and cell death of cells with CA (pkd1-null (WT9-12) cells) | centrosome clustering in cells with CA (pkd1-null (WT9-12) cells) | normal mitotic spindle formation in cells with normal centrosome number (wild-type (HK2) cells) | cyst formation (PKD1^RC/RC mice [1]; five months treatment) | fibrosis markers (PKD1^RC/RC mice [1]; five months treatment) | effect on cystogenesis (PKD1^RC/RC mice [1]; [4]) | effect on renal fibrosis (PKD1^RC/RC mice [1]; [4]) | cyst formation at eleven months (PKD1^RC/RC mice [2]; gavage every other day for sixty days, compared to untreated mice) | BUN (PKD1^RC/RC mice [2]; three months post-washout) | cyst re-formation (PKD1^RC/RC mice [2]; three months post-washout) | fibrosis (PKD1^RC/RC mice [2]; three months post-washout) | serum creatinine (PKD1^RC/RC mice [2]; three months post-washout) | IC50 (CPAP-tubulin interaction) | reduction of the rate of decline in renal function [3]
COc1ncc2cc3ccccc3nc2c1C#N [CCB02] | delay in mitotic progression | activation of the spindle assembly checkpoint (SAC), leading to cell death | inhibited centrosome clustering | not impacting normal mitotic spindle formation | better results in comparison to the FDA-approved drug tolvaptan | significant reduction in fibrosis markers | even greater effect on cystogenesis | even greater effect on renal fibrosis | reduction in cyst formation | no increase | cysts did not reform | fibrosis was not evident | no increase | 689 nM | –
CN(C)CC(=O)Nc1ccc2[nH]c(=O)c3ccccc3c2c1.Cl [PJ-34] | delay in mitotic progression | activation of the spindle assembly checkpoint (SAC), leading to cell death | inhibited centrosome clustering | not impacting normal mitotic spindle formation | – | – | – | – | – | – | – | – | – | – | –
Cc1ccccc1C(=O)Nc1ccc(C(=O)N2CCCC(O)c3cc(Cl)ccc32)c(C)c1 (centres unmarked) [tolvaptan] | – | – | – | – | – | significant reduction in fibrosis markers | – | – | – | – | – | – | – | – | 2%-3%
